Measured values reported in US6124322A, “Intravenous form of thalidomide for treating immunological diseases” (Gruenenthal GmbH, priority 1997, dated 2000).
In brackets after ≈: the same amount, converted by molar mass.

Legend:
aphthous stomatitis = conditions: treatment of aphthous stomatitis; cited from earlier work
[1] = tested on: cutaneous lupus erythematosus, pyoderma gangrenosum, orogenital ulcers with morbus Behcet, ulcerations in HIV-infected patients; conditions: cited from earlier work
[2] = hydrolysis in aqueous solution; assay type: physicochemical; conditions: aqueous solutions, pH not restricted
Excerpt: The enantiomers of thalidomide have a solubility in water which is higher by a factor of 6 than that of the racemate.

[3] = Arch. Pharm. 321, 371 (1988); cited from earlier work

Question: With `O=C1CCC(N2C(=O)c3ccccc3C2=O)C(=O)N1` (racemic) [thalidomide] as the compound, how does the “efficacy in aphthous stomatitis versus classical immunosuppressants” value (aphthous stomatitis) read?
Answer: superior to classical immunosuppressants

Question: And the “efficacy without general immunosuppression” value [1]?
Answer: good efficacy without resulting in a general immunosuppression

Question: And the “hydrolysis in aqueous solution” value [2]?
Answer: tendency of thalidomide to undergo spontaneous hydrolysis

Question: What about the solubility in water [3] of the same compound?
Answer: 12 µg/mL (≈ 46.5 µM)
